# Test results from US20100256104A1, “NOVEL AMIDE COMPOUNDS” (ASTRAZENECA R&D, priority 2009, published 2010).
# Biological target: T1, recombinant human GR (Homo sapiens, UniProt P04150)
# T1 construct: purchased Panvera/Invitrogen P2812 (kit P2893)
# T1 sequence (P04150 1-777): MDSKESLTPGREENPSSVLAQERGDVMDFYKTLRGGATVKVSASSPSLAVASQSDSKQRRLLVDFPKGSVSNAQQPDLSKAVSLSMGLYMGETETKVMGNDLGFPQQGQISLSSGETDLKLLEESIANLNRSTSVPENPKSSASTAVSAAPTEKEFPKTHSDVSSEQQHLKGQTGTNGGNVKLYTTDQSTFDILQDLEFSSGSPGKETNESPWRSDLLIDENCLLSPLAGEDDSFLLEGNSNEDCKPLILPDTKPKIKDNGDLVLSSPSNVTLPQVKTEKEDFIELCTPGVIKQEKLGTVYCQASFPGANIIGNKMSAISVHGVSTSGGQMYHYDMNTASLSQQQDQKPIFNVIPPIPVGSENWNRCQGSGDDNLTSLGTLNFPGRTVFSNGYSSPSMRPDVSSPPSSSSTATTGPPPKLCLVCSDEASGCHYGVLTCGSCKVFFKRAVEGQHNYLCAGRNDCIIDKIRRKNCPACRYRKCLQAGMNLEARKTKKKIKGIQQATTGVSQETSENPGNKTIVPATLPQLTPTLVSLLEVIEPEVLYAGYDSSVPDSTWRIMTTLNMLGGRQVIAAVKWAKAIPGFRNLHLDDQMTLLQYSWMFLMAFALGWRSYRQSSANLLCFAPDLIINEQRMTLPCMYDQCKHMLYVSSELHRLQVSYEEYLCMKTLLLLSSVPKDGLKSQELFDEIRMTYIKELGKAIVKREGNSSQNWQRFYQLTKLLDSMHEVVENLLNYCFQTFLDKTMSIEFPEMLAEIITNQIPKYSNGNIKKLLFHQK
# Assay: Human Glucocorticoid Receptor (GR) Assay, fluorescence polarization competition with GS Red tracer
# Conditions: 2 hours at room temperature, 100% control 10 μM Dexamethasone, XLfit model 205, read-out: Inhibition of GR binding, IC50
# Experimental: Human Glucocorticoid Receptor (GR) Assay The assay is based on a commercial kit from Panvera/Invitrogen (Part number P2893). The assay technology is fluorescence polarization. The kit utilises recombinant human GR (Panvera, Part number P2812), a Fluoromone™ labelled tracer (GS Red, Panvera, Part number P2894) and a Stabilizing Peptide 10X (Panvera, Part number P2815). The GR and Stabilizing Peptide reagents are stored at −70° C. while the GS Red is stored at −20° C. Also included in the kit are 1M DTT (Panvera, Part number P2325, stored at −20° C.) and GR Screening buffer 10X (Panvera, Part number P2814, stored at −70° C. initially but once thawed stored at room temperature). Avoid repeated freeze/thaws for all reagents. The GR Screening buffer 10X comprises 100 mM potassium phosphate, 200 mM sodium molybdate, 1 mM EDTA and 20% DMSO. Test compounds (1 μL) and controls (1 μL) in 100% DMSO were added to black polystyrene 384-well plates (Greiner low volume black flat-bottom, part number 784076). 0% control was 100% DMSO and 100% control was 10 μM Dexamethasone. Background solution (8 μL; assay buffer 10X, Stabilizing Peptide, DTT and ice cold MQ water) was added to the background wells. GS Red solution (7 μL; assay buffer 10X, Stabilizing Peptide, DTT, GS Red and ice cold water) was added to all wells except background wells. GR solution (7 μL; assay buffer 10X, Stabilizing Peptide, DTT, GR and ice cold water) was added to all wells. The plate was sealed and incubated in a dark at room temperature for 2 hours. The plate was read in an Analyst plate reader (LJL Biosystems/Molecular Devices Corporation) or other similar plate reader capable of recording fluorescence polarization (excitation wavelength 530 nm, emission wavelength 590 nm and a dichroic mirror at 561 nm).
row,SMILES,IC50
1,"COCC(=O)O[C@]1(C(=O)SCC#N)CC[C@H]2[C@@H]3CCC4=Cc5c(cnn5-c5cccc(C(=O)N6CCC[C@@H]6C(N)=O)c5)C[C@]4(C)[C@@]3(F)[C@@H](O)C[C@@]21C [Example 57, (1R,3aS,3bS,10aS, 10bR,11S,12aS)-7-(3-{[(2R)-2-carbamoyl-pyrrolidin-1-yl]carbonyl}phenyl)-1-{[(cyanomethyl)sulfanyl]carbonyl}-10b-fluoro-11-hydroxy-10a,12a-dimethyl-1,2,3,3a,3b,4,5,7,10, 10a,10b,11,12,12a-tetradecahydrocyclo-penta[5,6]naphtho [1,2-f]indazol-1-yl methoxyacetate]",10 nM
2,"COCC(=O)O[C@]1(C(=O)SCF)CC[C@H]2[C@@H]3CCC4=Cc5c(cnn5-c5cccc(C(=O)NCC(N)=O)c5)C[C@]4(C)[C@@]3(F)[C@@H](O)C[C@@]21C [Example 17, (1R,3aS,3bS,10aS,10bR,11S, 12aS)-7-{3-[(2-amino-2-oxoethyl)carbamoyl]-phenyl}-10b-fluoro-1-{[(fluoromethyl)sulfanyl]carbonyl}-11-hydroxy-10a,12a-dimethyl-1,2,3,3a,3b,4,5,7,10,10a,10b, 11,12,12a-tetradecahydro-cyclopenta[5,6]naphtho[1,2-f] indazol-1-yl methoxyacetate]",3 nM
3,"CCC(=O)O[C@]1(C(=O)SCC#N)CC[C@H]2[C@@H]3CCC4=Cc5c(cnn5-c5cccc(C(=O)NCCOC)c5)C[C@]4(C)[C@H]3[C@@H](O)C[C@@]21C [Example 1, (1R,3aS,3bS,10aR,10bS,11S,12aS)-1-{[(Cyanomethyl)sulfanyl]carbonyl}-11-hydroxy-7-{3-[(2-methoxyethyl)carbamoyl]phenyl}-10a,12a-dimethyl-1,2,3,3a,3b,4,5,7,10,10a,10b,11,12,12a-tetradecahydrocyclopenta[5,6]naphtho[1,2-f]indazol-1-yl propanoate]",1 nM
4,"CCC(=O)O[C@]1(C(=O)SCC#N)CC[C@H]2[C@@H]3CCC4=Cc5c(cnn5-c5cccc(C(=O)NCCSC)c5)C[C@]4(C)[C@H]3[C@@H](O)C[C@@]21C [Example 6, (1R,3aS,3bS,10aR,10bS,11S,12aS)-1-{[(Cyanomethyl)sulfanyl]carbonyl}-11-hydroxy-10a,12a-dimethyl-7-(3-{[2-(methylsulfanyl)ethyl]carbamoyl}phenyl)-1,2,3,3a,3b,4,5,7,10,10a,10b,11,12,12a-tetradecahydrocyclopenta[5,6]naphtho[1,2-f]indazol-1-yl propanoate]",1.7 nM
5,"CCC(=O)O[C@]1(C(=O)SCF)CC[C@H]2[C@@H]3CCC4=Cc5c(cnn5-c5cccc(C(=O)N[C@@H](C)C(N)=O)c5)C[C@]4(C)[C@@]3(F)[C@@H](O)C[C@@]21C [Example 35, (1R,3aS,3bS,10aS, 10bR,11S,12aS)-7-(3-{[(1S)-2-amino-1-methyl-2-oxoethyl]carbamoyl}phenyl)-10b-fluoro-1-{[(fluoromethyl)sulfanyl]carbonyl}-11-hydroxy-10a,12a-dimethyl-1,2,3,3a,3b,4,5,7,10,10a, 10b,11,12,12a-tetradecahydrocyclo-penta[5,6]naphtho [1,2-f]indazol-1-yl propanoate]",6.5 nM
6,"CCNC(=O)c1cccc(-n2ncc3c2C=C2CC[C@H]4[C@@H]5C[C@@H](C)[C@](OC(=O)COC)(C(=O)SCF)[C@@]5(C)C[C@H](O)[C@]4(F)[C@@]2(C)C3)c1 [Example 27, (1R,2R,3aS,3bS, 10aS,10bR,11S,12aS)-7-[3-(ethylcarbamoyl)phenyl]-10b-fluoro-1-{[(fluoro-methyl)sulfanyl]-carbonyl}-11-hydroxy-2,10a,12a-trimethyl-1,2,3,3a, 3b,4,5,7,10,10a,- 10b,11,12,12a-tetradecahydrocyclo-penta[5,6]naphtho [1,2-f]indazol-1-yl methoxyacetate]",0.47 nM
7,"CCC(=O)O[C@]1(C(=O)SCF)CC[C@H]2[C@@H]3C[C@H](C)C4=Cc5c(cnn5-c5cccc(C(=O)NCC(N)=O)c5)C[C@]4(C)[C@H]3[C@@H](O)C[C@@]21C [Example 37, (1R,3aS,3bS,5S,10aR, 10bS,11S,12aS)-7-{3-[(2-amino-2-oxoethyl)carbamoyl]phenyl}-1-{[(fluoromethyl)sulfanyl]carbonyl}-11-hydroxy-5,10a, 12a-trimethyl-1,2,3,3a,3b,4,5,7,10, 10a,10b,11,12,12a-tetradecahydrocyclo-penta[5,6]naphtho [1,2-f]indazol-1-yl propanoate]",7.1 nM
8,"COCC(=O)O[C@]1(C(=O)SC)CC[C@H]2[C@@H]3CCC4=Cc5c(cnn5-c5cccc(C(=O)N6CCC[C@@H]6C(N)=O)c5)C[C@]4(C)[C@@]3(F)[C@@H](O)C[C@@]21C [Example 56, (1R,3aS,3bS,10aS,10bR,11S,12aS)-7-(3-{[(2R)-2-carbamoylpyrrolidin-1-yl]carbonyl}phenyl)-10b-fluoro-11-hydroxy-10a,12a-dimethyl-1-[(methylsulfanyl)carbonyl]-1,2,3,3a,3b,4,5,7,10,10a,10b,11,12,12a-tetradecahydrocyclopenta[5,6]naphtho[1,2-f]indazol-1-yl methoxyacetate]",8.6 nM
9,"COCCNC(=O)c1cccc(-n2ncc3c2C=C2CC[C@@H]4[C@H]([C@@H](O)C[C@@]5(C)[C@H]4CC[C@]5(OC(=O)COC)C(=O)SCF)[C@@]2(C)C3)c1 [Example 3, (1R,3aS,3bS,10aR,10bS,11S,12aS)-1-{[(Fluoromethyl)sulfanyl]carbonyl}-11-hydroxy-7-{3-[(2-methoxyethyl)carbamoyl]phenyl}-10a,12a-dimethyl-1,2,3,3a,3b,4,5,7,10,10a,10b,11,12,12a-tetradecahydrocyclopenta[5,6]naphtho[1,2-f]indazol-1-yl methoxyacetate]",1.6 nM
10,"COCCNC(=O)c1cccc(-n2ncc3c2C=C2CC[C@@H]4[C@H]([C@@H](O)C[C@@]5(C)[C@H]4CC[C@]5(OC(=O)C4CC4)C(=O)SCC#N)[C@@]2(C)C3)c1 [Example 4, (1R,3aS,3bS,10aR,10bS,11S,12aS)-1-{[(Cyanomethyl)sulfanyl]carbonyl}-11-hydroxy-7-{3-[(2-methoxyethyl)carbamoyl]phenyl}-10a,12a-dimethyl-1,2,3,3a,3b,4,5,7,10,10a,10b,11,12,12a-tetradecahydrocyclopenta[5,6]naphtho[1,2-f]indazol-1-yl cyclopropanecarboxylate]",0.91 nM
11,"CCC(=O)O[C@]1(C(=O)SCF)CC[C@H]2[C@@H]3C[C@H](C)C4=Cc5c(cnn5-c5cccc(C(=O)N[C@H](C)C(N)=O)c5)C[C@]4(C)[C@H]3[C@@H](O)C[C@@]21C [Example 24, (1R,3aS,3bS,5S,10aR, 10bS,11S,12aS)-7-(3-{[(1R)-2-amino-1-methyl-2-oxoethyl]carbamoyl}phenyl)-1-{[(fluoromethyl)sulfanyl]carbonyl}-11-hydroxy-5,10a,12a-trimethyl-1,2,3,3a,3b,4,5,7,10, 10a,10b,11,12,12a-tetradecahydrocyclo-penta[5,6]naphtho [1,2-f]indazol-1-yl propanoate]",2.1 nM
